Measured values as given in patent publication US6872805B2 (Bristol-Myers Squibb Company, priority 2000, dated 2005).
Where two headings read alike, the source gives them in different places.

Legend:
[1] = molecular target: HCV NS3/4A protease complex (Hepatitis C virus genotype 1a, UniProt P27958, C1454S/C1711G); assay: Recombinant HCV NS3/4A protease complex FRET peptide assay (strain not stated); format: biochemical; details: IC50, NS3/4A protease enzyme assay, strain not stated; activity ranges
HCV NS3/4A protease complex, sequence (P27958 1027-1711, stated change not applied): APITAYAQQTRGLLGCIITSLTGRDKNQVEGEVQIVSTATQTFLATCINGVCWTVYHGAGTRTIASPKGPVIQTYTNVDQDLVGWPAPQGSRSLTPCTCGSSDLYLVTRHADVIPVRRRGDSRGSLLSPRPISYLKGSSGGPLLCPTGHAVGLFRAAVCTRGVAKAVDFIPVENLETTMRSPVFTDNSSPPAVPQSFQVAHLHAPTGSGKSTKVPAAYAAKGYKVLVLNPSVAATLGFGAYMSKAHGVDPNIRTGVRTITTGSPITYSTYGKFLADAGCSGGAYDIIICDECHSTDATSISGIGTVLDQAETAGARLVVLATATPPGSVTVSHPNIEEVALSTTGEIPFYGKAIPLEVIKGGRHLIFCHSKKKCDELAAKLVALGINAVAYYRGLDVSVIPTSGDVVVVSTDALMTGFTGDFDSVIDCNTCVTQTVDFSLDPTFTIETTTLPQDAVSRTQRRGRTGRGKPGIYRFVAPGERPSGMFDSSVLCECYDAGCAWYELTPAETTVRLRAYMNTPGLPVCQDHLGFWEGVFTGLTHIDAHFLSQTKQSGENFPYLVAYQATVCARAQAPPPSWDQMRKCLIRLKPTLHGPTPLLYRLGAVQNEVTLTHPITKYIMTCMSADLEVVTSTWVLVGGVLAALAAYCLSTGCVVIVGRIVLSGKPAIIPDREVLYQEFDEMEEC
HCV NS3/4A protease complex, sequence (P27958 1027-1711, stated change not applied): as above

[2] = tested on: HCV replicon in Huh7 cells; assay: HCV replicon cell-based assay; parameters: species or system HCV strain 1B; details: Hepatitis C virus, Huh-7, 96 h
Summary of the method: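 Genotype 1b subgenomic replicon Huh7 cells exposed to compound 4 days at 37° C in 4% FCS, 0.5% DMSO medium. EC50 from TaqMan RT-PCR of HCV RNA, normalized to total RNA by RiboGreen; CC50 from alamar Blue fluorescence after 4 h.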

[3] = HCV replicon, Huh7 cells, 4 days, activity ranges, read-out: EC50

| Compound | IC50 [1] [µM] | EC50 [2, 3] [µM] | EC50 [2] [µM] |
| --- | --- | --- | --- |
| C=CC1C[C@]1(NC(=O)[C@@H]1C[C@@H](Oc2cc(-c3ccccc3)nc3cc(OC)ccc23)CN1C(=O)[C@@H](NC(=O)OC(C)(C)C)C(C)C)C(=O)NS(=O)(=O)C1CC1 (some centres unmarked) [Compound 31] | < 0.05 | < 0.05 |  |
| CCC1C[C@]1(NC(=O)[C@@H]1C[C@@H](Oc2cc(-c3ccccc3)nc3cc(OC)ccc23)CN1C(=O)[C@@H](NC(=O)CC1CC1)C(C)C)C(=O)NS(=O)(=O)C1CC1 (stereo in doubt) [Compound 5, 1-[2-(2-cyclopropylacetylamino)-3-methylbutyryl]-4-(7-methoxy-2-phenylquinolin-4-yloxy)pyrrolidine-2-carboxylic acid (1-cyclopropanesulfonylaminocarbonyl-2-ethylcyclopropyl)amide] | < 0.05 | < 0.05 |  |
| C=C[C@@H]1C[C@]1(NC(=O)C1C[C@@H](Oc2cc(-c3ccccc3)nc3cc(OC)ccc23)CN1C(=O)[C@@H](NC(=O)CC(C)(C)C)C(C)(C)C)C(=O)NS(=O)(=O)C1CC1 (stereo partly drawn) [Compound 103, 1-[2S-(3,3-Dimethyl-butyrylamino)-3,3-dimethyl-butyryl]-4R-(7-methoxy-2-phenyl-quinolin-4-yloxy)-pyrrolidine-2S-carboxylic acid (1R-cyclopropanesulfonylaminocarbonyl-2S-vinyl-cyclopropyl)amide] | < 0.05 | < 0.05 |  |
| C=CC1C[C@]1(NC(=O)[C@@H]1C[C@@H](Oc2cc(-c3ccccc3)nc3cc(OC)ccc23)CN1C(=O)[C@@H](NC(=O)OC(C)(C)C)C(C)(C)C)C(=O)NS(=O)(=O)CC (some centres unmarked) [Compound 25] | < 0.05 | < 0.5 |  |
| C=C[C@@H]1C[C@]1(NC(=O)C1CC(Oc2cc(-c3ccccc3)nc3cc(OC)ccc23)CN1C(=O)[C@@H](NC(=O)OCc1ccccc1)C(C)(C)C)C(=O)NS(=O)(=O)C1CC1 (stereo partly drawn) [Compound 114, {1S-[2S-(1R-cyclopropanesulfonylaminocarbonyl-2S-vinyl-cyclopropylcarbamoyl)-4R-(7-methoxy-2-phenyl-quinolin-4-yloxy)-pyrrolidine-1-carbonyl]-2,2-dimethyl-propyl}-carbamic acid benzyl ester] | < 0.05 | < 0.05 |  |
| COc1ccc2c(O[C@@H]3C[C@@H](C(=O)NC4(C(=O)NS(=O)(=O)C5CC5)CC4)N(C(=O)[C@@H](NC(=O)OC(C)(C)C)C(C)(C)C)C3)cc(-c3ccccc3)nc2c1 [Compound 67] | < 0.05 | < 5 |  |
| C=CC1C[C@]1(NC(=O)[C@@H]1C[C@@H](Oc2cc(-c3ccccc3)nc3cc(OC)ccc23)CN1C(=O)[C@@H](NC(=O)OC(C)(C)C)C(C)(C)C)C(=O)NS(=O)(=O)CC1CC1 (stereo in doubt) [Compound 16, {1-[2-(1-Cyclopropylmethanesulfonylaminocarbonyl-2-vinylcyclopropylcarbamoyl)-4-(7-methoxy-2-phenylquinolin-4-yloxy)pyrrolidine-1-carbonyl]-2,2-dimethylpropyl}-carbamic acid tert-butyl ester] | < 0.5 | < 0.5 |  |
| CCC1C[C@]1(NC(=O)C1C[C@@H](Oc2cc(-c3ccccc3)nc3cc(OC)ccc23)CN1C(=O)[C@@H](NC(=O)OCCF)C(C)C)C(=O)NS(=O)(=O)C1CC1 (some centres unmarked) [Compound 9] | < 0.05 | < 0.5 |  |
| C=C[C@@H]1C[C@]1(NC(=O)C1C[C@@H](Oc2cc(-c3ccccc3)nc3cc(OC)ccc23)CN1C(=O)[C@@H](NC(C)=O)C(C)(C)C)C(=O)NS(=O)(=O)C1CC1 (stereo partly drawn) [Compound 98, 1-(2S-Acetylamino-3,3-dimethyl-butyryl)-4R-(7-methoxy-2-phenyl-quinolin-4-yloxy)-pyrrolidine-2S-carboxylic acid (1R-cyclopropanesulfonylaminocarbonyl-2S-vinyl-cyclopropyl)amide] | < 0.05 | < 0.5 |  |
| C=CC1C[C@]1(NC(=O)[C@@H]1C[C@@H](Oc2cc(-c3ccccc3)nc3cc(OC)ccc23)CN1C(=O)C(NC(=O)OC(C)(C)C)C(C)(C)C)C(=O)NS(=O)(=O)c1ccccc1C (some centres unmarked) [Compound 63] | < 0.05 | < 0.5 |  |
| C=CC1C[C@]1(NC(=O)[C@@H]1C[C@@H](Oc2cc(-c3ccccc3)nc3cc(OC)ccc23)CN1C(=O)[C@@H](NC(=O)OC(C)(C)C)C(C)(C)C)C(=O)NS(=O)(=O)c1ccc(Br)cc1 (some centres unmarked) [Compound 17] | < 0.5 | < 0.5 |  |
| C=C[C@@H]1C[C@]1(NC(=O)C1C[C@@H](Oc2cc(-c3ccccc3)nc3cc(OC)ccc23)CN1C(=O)[C@@H](NC(=O)CCC(=O)O)C(C)(C)C)C(=O)NS(=O)(=O)C1CC1 (stereo partly drawn) [Compound 100, N-{1S-[2S-(1R-cyclopropanesulfonylaminocarbonyl-2S-vinyl-cyclopropylcarbamoyl)-4R-(7-methoxy-2-phenyl-quinolin-4-yloxy)-pyrrolidine-1-carbonyl]-2,2-dimethyl-propyl}-succinamic acid] | < 0.05 | < 0.5 |  |
| C=CC1C[C@]1(NC(=O)C1CC(Oc2cc(-c3ccccc3)nc3cc(OC)ccc23)CN1C(=O)[C@@H](NC)C(C)(C)C)C(=O)NS(=O)(=O)C1CC1 (stereo partly drawn) [Compound 132, (3,3-dimethyl-2-methylamino-butyryl)-4R-(7-methoxy-2-phenyl-quinolin-4-yloxy)-pyrrolidine-2S-carboxylic acid (1R-cyclopropanesulfonylaminocarbonyl-2S-vinyl-cyclo-propyl)amide] | < 0.05 | < 5 |  |
| C=CC1C[C@]1(NC(=O)[C@@H]1C[C@@H](Oc2cc(-c3ccccc3)nc3cc(OC)ccc23)CN1C(=O)C(NC(=O)OC(C)(C)C)C(C)(C)C)C(=O)NS(=O)(=O)c1cccc2ccccc12 (some centres unmarked) [Compound 35] | < 0.05 | < 0.5 |  |
| C=CC1C[C@]1(NC(=O)[C@@H]1C[C@@H](Oc2cc(-c3ccccc3)nc3cc(OC)ccc23)CN1C(=O)[C@@H](NC(=O)OC(C)(C)C)C(C)C)C(=O)NS(=O)(=O)C(C)C (some centres unmarked) [Compound 32] | < 0.05 | < 0.05 |  |
| C=C[C@@H]1C[C@]1(NC(=O)C1C[C@@H](Oc2cc(-c3ccccc3)nc3cc(OC)ccc23)CN1C(=O)[C@@H](NC(=O)COc1ccc(OC)cc1)C(C)(C)C)C(=O)NS(=O)(=O)C1CC1 (some centres unmarked) [Compound 108] | < 0.05 | < 0.5 |  |
| C=CC1C[C@]1(NC(=O)[C@@H]1C[C@@H](Oc2cc(-c3ccccc3)nc3cc(OC)ccc23)CN1C(=O)[C@@H](NC(=O)NC(C)(C)C)C(C)(C)C)C(=O)NS(=O)(=O)C1CC1 (stereo in doubt) [Compound 19, 1-[2-(3-tert-Butylureido)-3,3-dimethylbutyryl]-4-(7-methoxy-2-phenylquinolin-4-yloxy)pyrrolidine-2-carboxylic acid (1-cyclopropanesulfonylaminocarbonyl-2-vinylcyclopropyl)amide] | < 0.05 | < 0.05 |  |
| C=C1C[C@]1(NC(=O)[C@@H]1C[C@@H](Oc2cc(-c3ccccc3)nc3cc(OC)ccc23)CN1C(=O)C(NC(=O)OC(C)(C)C)C(C)(C)C)C(=O)NS(=O)(=O)c1cc(F)ccc1C (some centres unmarked) [Compound 46] | < 0.05 | < 0.5 |  |
| C=CC1C[C@]1(NC(=O)[C@@H]1C[C@@H](Oc2cc(-c3ccccc3)nc3cc(OC)ccc23)CN1C(=O)[C@@H](NC(=O)OC(C)(C)C)C(C)C)C(=O)NS(=O)(=O)C1CCC1 (some centres unmarked) [Compound 71] | < 0.05 | < 0.05 |  |
| C=CC1C[C@]1(NC(=O)[C@@H]1C[C@@H](Oc2cc(-c3ccccc3)nc3cc(OC)ccc23)CN1C(=O)[C@@H](NC(=O)OC(C)(C)C)C(C)(C)C)C(=O)NS(=O)(=O)c1cccc([N+](=O)[O-])c1 (some centres unmarked) [Compound 53] | < 0.05 | < 50 |  |
| C=C[C@@H]1C[C@]1(NC(=O)C1C[C@@H](Oc2cc(-c3ccccc3)nc3cc(OC)ccc23)CN1C(=O)[C@@H](NC(=O)C(F)(F)F)C(C)(C)C)C(=O)NS(=O)(=O)C1CC1 (stereo partly drawn) [Compound 99, 1-[3,3-dimethyl-2S-(2,2,2-trifluoro-acetylamino)-butyryl]-4R-(7-methoxy-2-phenylquinolin-4-yloxy)pyrrolidine-2S-carboxylic acid(1R-cyclopropanesulfonylaminocarbonyl-2S-vinylcyclopropyl)amide] | < 0.05 | < 0.5 |  |
| C=C[C@@H]1C[C@]1(NC(=O)C1C[C@@H](Oc2cc(-c3ccccc3)nc3cc(OC)ccc23)CN1C(=O)[C@@H](NC(=O)CF)C(C)(C)C)C(=O)NS(=O)(=O)C1CC1 (stereo partly drawn) [Compound 112, 1-[2S-(2-Fluoro-acetylamino)-3,3-dimethyl-butyryl]-4R-(7-methoxy-2-phenyl-quinolin-4-yloxy)-pyrrolidine-2S-carboxylic acid (1R-cyclopropanesulfonylaminocarbonyl-2S-vinyl-cyclopropyl)-amide] | < 0.05 |  | < 0.05 |
| C=CC1C[C@]1(NC(=O)[C@@H]1C[C@@H](Oc2cc(-c3ccccc3)nc3cc(OC)ccc23)CN1C(=O)[C@@H](NC(=O)OC(C)(C)C)C1CCCC1)C(=O)NS(=O)(=O)C1CCC1 (some centres unmarked) [Compound 72] | < 0.5 | < 0.5 |  |
| COc1ccc2c(O[C@@H]3C[C@@H](C(=O)NC4(C(=O)NS(=O)(=O)C5CC5)CCC4)N(C(=O)[C@@H](NC(=O)OC(C)(C)C)C(C)(C)C)C3)cc(-c3ccccc3)nc2c1 [Compound 22] | < 0.05 | < 0.5 |  |
| C=C[C@@H]1C[C@]1(NC(=O)C1C[C@@H](Oc2cc(-c3ccccc3)nc3cc(OC)ccc23)CN1C(=O)[C@@H](NC(=O)c1ccco1)C(C)(C)C)C(=O)NS(=O)(=O)C1CC1 (stereo partly drawn) [Compound 110, 1-{2S-[(furan-2-carbonyl)-amino]-3,3-dimethyl-butyryl}-4R-(7-methoxy-2-phenyl-quinolin-4-yloxy)-pyrrolidine-2S-carboxylic acid (1R-cyclopropanesulfonylaminocarbonyl-2S-vinyl-cyclopropyl)-amide] | < 0.05 | < 0.5 |  |
